Results on 32 compounds are retold here after US20090118332A1, “Therapeutic Agents - 551” (AstraZeneca AB, priority 2006, published 2009).

The assay concerns the target T1, human Fatty Acid Synthase (Homo sapiens, UniProt P49327).
T1 construct: made in house
The experiment in a line: Human FAS enzyme assay (decrease in NADPH fluorescence). In kind it is biochemical. Particulars: for inhibition at 100 µM: % inhibition at a concentration of 100 μmolar; for IC50, inhibition of human Fatty Acid Synthase: FAS enzyme assay, IC50 from fitted sigmoid curves. The gist of the method: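 In-house human FAS was preincubated with compound and NADPH for 15 min at room temperature in 0.1 M Tris pH 7.5 with EDTA, glutathione and BSA. Malonyl CoA and acetyl CoA (500 μM and 150 μM in the added mix) were then added for 60 min. IC50 came from time-zero-subtracted NADPH fluorescence (340/460 nm).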

T1 sequence (P49327 whole entry): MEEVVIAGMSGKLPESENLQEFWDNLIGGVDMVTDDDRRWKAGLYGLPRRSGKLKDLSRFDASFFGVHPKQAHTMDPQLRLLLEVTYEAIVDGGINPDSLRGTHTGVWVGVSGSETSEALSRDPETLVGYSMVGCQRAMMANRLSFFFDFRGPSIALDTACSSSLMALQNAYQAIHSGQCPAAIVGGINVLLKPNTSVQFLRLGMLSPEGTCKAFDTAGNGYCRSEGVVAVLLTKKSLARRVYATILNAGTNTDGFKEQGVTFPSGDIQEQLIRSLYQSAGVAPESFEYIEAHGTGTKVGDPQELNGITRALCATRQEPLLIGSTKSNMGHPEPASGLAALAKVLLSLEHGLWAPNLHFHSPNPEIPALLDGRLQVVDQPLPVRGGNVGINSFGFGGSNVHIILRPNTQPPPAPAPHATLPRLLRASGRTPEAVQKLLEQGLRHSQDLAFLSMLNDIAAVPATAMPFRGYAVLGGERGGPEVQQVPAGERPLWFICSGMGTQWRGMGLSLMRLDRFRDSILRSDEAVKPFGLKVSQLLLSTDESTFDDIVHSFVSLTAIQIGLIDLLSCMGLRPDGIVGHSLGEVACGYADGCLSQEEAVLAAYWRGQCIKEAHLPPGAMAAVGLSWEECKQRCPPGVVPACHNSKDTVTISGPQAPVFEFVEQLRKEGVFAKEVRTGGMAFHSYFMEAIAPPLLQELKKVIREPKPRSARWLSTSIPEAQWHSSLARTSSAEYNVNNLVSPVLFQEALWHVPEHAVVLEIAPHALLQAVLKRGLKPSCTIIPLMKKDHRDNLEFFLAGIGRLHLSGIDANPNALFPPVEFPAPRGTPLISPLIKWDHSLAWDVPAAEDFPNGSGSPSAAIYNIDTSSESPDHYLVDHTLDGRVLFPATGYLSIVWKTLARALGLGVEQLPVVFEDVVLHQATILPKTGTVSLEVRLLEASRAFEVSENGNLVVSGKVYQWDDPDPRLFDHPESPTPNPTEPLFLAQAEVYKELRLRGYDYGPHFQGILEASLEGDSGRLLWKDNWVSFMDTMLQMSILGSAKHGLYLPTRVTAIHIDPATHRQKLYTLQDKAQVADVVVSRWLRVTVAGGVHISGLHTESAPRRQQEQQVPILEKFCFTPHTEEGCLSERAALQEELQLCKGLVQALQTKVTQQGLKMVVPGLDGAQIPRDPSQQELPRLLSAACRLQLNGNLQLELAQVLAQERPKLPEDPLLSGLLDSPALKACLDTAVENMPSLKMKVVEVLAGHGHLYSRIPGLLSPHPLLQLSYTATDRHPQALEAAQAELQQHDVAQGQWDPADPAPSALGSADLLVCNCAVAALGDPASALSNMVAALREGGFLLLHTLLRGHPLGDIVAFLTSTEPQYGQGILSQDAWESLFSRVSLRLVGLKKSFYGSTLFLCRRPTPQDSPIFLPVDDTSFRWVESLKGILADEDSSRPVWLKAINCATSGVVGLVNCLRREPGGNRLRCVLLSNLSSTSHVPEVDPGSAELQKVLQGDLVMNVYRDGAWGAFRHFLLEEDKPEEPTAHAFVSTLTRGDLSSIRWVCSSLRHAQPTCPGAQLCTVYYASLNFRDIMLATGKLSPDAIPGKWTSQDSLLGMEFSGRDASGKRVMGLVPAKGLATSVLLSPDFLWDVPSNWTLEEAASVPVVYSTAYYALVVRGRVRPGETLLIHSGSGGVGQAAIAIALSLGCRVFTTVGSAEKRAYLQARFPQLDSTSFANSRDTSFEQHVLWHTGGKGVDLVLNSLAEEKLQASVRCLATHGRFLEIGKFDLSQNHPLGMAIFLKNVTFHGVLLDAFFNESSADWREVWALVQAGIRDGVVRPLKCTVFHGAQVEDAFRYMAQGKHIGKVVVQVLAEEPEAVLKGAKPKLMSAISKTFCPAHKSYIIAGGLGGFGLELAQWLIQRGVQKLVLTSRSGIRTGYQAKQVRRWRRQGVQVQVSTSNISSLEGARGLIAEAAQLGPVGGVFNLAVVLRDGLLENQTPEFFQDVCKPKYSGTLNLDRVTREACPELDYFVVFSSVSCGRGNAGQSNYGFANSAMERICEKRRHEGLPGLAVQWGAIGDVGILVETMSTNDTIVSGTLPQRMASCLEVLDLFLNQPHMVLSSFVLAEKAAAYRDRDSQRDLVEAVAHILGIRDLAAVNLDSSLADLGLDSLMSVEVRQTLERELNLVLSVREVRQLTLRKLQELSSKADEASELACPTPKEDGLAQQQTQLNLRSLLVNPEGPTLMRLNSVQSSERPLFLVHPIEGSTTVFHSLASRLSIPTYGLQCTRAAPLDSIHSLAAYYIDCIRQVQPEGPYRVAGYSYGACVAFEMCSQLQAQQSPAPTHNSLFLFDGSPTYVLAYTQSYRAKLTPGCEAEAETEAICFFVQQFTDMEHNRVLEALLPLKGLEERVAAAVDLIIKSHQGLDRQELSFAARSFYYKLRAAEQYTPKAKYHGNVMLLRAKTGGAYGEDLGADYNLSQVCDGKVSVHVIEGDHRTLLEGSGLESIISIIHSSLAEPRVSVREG

The term inhibition denotes the drop in the measured response relative to a control, in per cent. Regarding `C[S+]([O-])c1ccc(C(=O)N2CCC(c3ccc(C#N)cc3)CC2)cc1NC(=O)NCc1ccccc1` (centres unmarked) [Example 387, 3-benzyl-1-[5-[4-(4-cyanophenyl)piperidine-1-carbonyl]-2-methylsulfinylphenyl]urea], the inhibition at 100 µM turned out to be 72.9%.
As for `Cc1cc(C)c(C(=O)N2CCC(c3ccc(C#N)cc3)CC2)cc1NC(=O)NC(C)C` [Example 13, 3-[5-[4-(4-cyanophenyl)piperidine-1-carbonyl]-2,4-dimethyl-phenyl]-1-propan-2-yl-urea], the inhibition at 100 µM is 84.8%.
The same measure, in the same setting: for `CC(=O)NCCCNC(=O)Nc1cc(C(=O)N2CCC(c3ccc(C#N)cc3)CC2)ccc1C` [Example 273, N-[3-[[5-[4-(4-cyanophenyl)piperidine-1-carbonyl]-2-methyl-phenyl]carbamoylamino]propyl]acetamide] the value was 87%; for `Cc1ccc(NC(=O)NCC2CCOCC2)cc1C(=O)N1CCC(c2ccc(C#N)cc2)CC1` [Example 27, 1-[3-[4-(4-cyanophenyl)piperidine-1-carbonyl]-4-methyl-phenyl]-3-(oxan-4-ylmethyl)urea], 80.7%; for `COC(=O)[C@H](CNC(=O)Nc1cc(C(=O)N2CCC(c3ccc(C#N)cc3)CC2)ccc1C)NC(=O)OC(C)(C)C` [Example 177, Methyl (2S)-3-[[5-[4-(4-cyanophenyl)piperidine-1-carbonyl]-2-methyl-phenyl]carbamoylamino]-2-[(2-methylpropan-2-yl)oxycarbonylamino]propanoate], 94.8%.
Same read-out and setting: under `Cc1ccc(C(=O)N2CCC(c3ccc(C#N)cc3)CC2)cc1NC(=O)N[C@H]1CCN(S(C)(=O)=O)C1` [Example 221, 1-[5-[4-(4-cyanophenyl)piperidine-1-carbonyl]-2-methyl-phenyl]-3-[(3S)-1-methylsulfonylpyrrolidin-3-yl]urea] stands 102%; under `CCCCNC(=O)NCCNC(=O)Nc1cc(C(=O)N2CCC(c3ccc(C#N)cc3)CC2)ccc1C` [Example 172, 1-butyl-3-[2-[[5-[4-(4-cyanophenyl)piperidine-1-carbonyl]-2-methyl-phenyl]carbamoylamino]ethyl]urea], 91.8%.
Regarding `Cc1ccc(C(=O)N2CCC(c3ccc(C#N)cc3)CC2)cc1NC(=O)N(C)C` [3-[5-[4-(4-cyanophenyl)piperidine-1-carbonyl]-2-methylphenyl]-1,1-dimethylurea], the “IC50, inhibition of human Fatty Acid Synthase” value was “do not have IC50s in the range of about 0.001 μM to about 30 μM”.
For the compound `Cc1ccc(C(=O)N2CCC(c3ccc(C#N)cc3)CC2)cc1NC(=O)NC1CN2CCC1CC2` (centres unmarked) [Example 143, 3-(1-azabicyclo[2.2.2]oct-8-yl)-1-[5-[4-(4-cyanophenyl)piperidine-1-carbonyl]-2-methyl-phenyl]urea], the inhibition at 100 µM came out at 84.4%.
On the same count and under the same terms, under `Cc1ccc(C(=O)N2CCC(c3ccc(C#N)cc3)CC2)cc1NC(=O)N[C@@H](CCS(C)(=O)=O)C(=O)O` [Example 240, (2S)-2-[[5-[4-(4-cyanophenyl)piperidine-1-carbonyl]-2-methyl-phenyl]carbamoylamino]-4-methylsulfonyl-butanoic acid] stands 99.3%; under `Cc1ccc(C(=O)N2CCC(c3ccc(C#N)cc3)CC2)cc1NC(=O)NCc1ccccc1F` [Example 34, 1-[5-[4-(4-cyanophenyl)piperidine-1-carbonyl]-2-methyl-phenyl]-3-[(2-fluorophenyl)methyl]urea], 86.5%.
On the same count and under the same terms, for `Cc1ccc(C(=O)N2CCC(c3ccc(C#N)cc3)CC2)cc1NC(=O)NC1CCCC1` [Example 15, 1-[5-[4-(4-cyanophenyl)piperidine-1-carbonyl]-2-methyl-phenyl]-3-cyclopentyl-urea] the value was 91.3%; for `Cc1ccc(C(=O)N2CCC(c3ccc(C#N)cc3)CC2)cc1NC(=O)NCCCNS(=O)(=O)C(C)C` [Example 217, 1-[5-[4-(4-cyanophenyl)piperidine-1-carbonyl]-2-methyl-phenyl]-3-[3-(propan-2-ylsulfonylamino)propyl]urea], 87%; for `Cc1ccc(NC(=O)N[C@H]2CC[C@H](O)CC2)cc1C(=O)N1CCC(c2ccc(C#N)cc2)CC1` [Example 49, 1-[3-[4-(4-cyanophenyl)piperidine-1-carbonyl]-4-methyl-phenyl]-3-trans-(4-hydroxycyclohexyl)urea], 98.1%.
Still for that read-out and setting: for `Cc1ccc(C(=O)N2CCC(c3ccc(C#N)cc3)CC2)cc1NC(=O)NCC1COc2ccccc2O1` (centres unmarked) [Example 165, 1-[5-[4-(4-cyanophenyl)piperidine-1-carbonyl]-2-methyl-phenyl]-3-(7,10-dioxabicyclo[4.4.0]deca-2,4,11-trien-8-ylmethyl)urea] the value was 92.4%; for `Cc1ccc(C(=O)N2CCC(c3ccc(C#N)cc3)CC2)cc1NC(=O)N[C@H]1CC[C@H](NS(=O)(=O)N(C)C)C1` [Example 323, 1-[5-[4-(4-cyanophenyl)piperidine-1-carbonyl]-2-methyl-phenyl]-3-[(1S,3S)-3-(dimethylsulfamoylamino)cyclopentyl]urea], 94%.
On to `Cc1ccc(C(=O)N2CCC(c3ccc(C#N)cc3)CC2)cc1NC(=O)NCCc1ccccc1` [Example 16, 1-[5-[4-(4-cyanophenyl)piperidine-1-carbonyl]-2-methyl-phenyl]-3-phenethyl-urea], for which the inhibition at 100 µM came out at 98.3%.
Same read-out and setting: for `Cc1ccc(C(=O)N2CCC(c3ccc(C#N)cc3)CC2)cc1NC(=O)N1CC(NS(=O)(=O)N(C)C)C1` [Example 314, N-[5-[4-(4-cyanophenyl)piperidine-1-carbonyl]-2-methyl-phenyl]-3-(dimethylsulfamoylamino)azetidine-1-carboxamide] the value was 87.4%; for `CNC(=O)c1ccc(C2CCN(C(=O)c3ccc(C)c(NC(=O)NC(C)C)c3)CC2)cc1` [Example 329, N-methyl-4-[1-[4-methyl-3-(propan-2-ylcarbamoylamino)benzoyl]-4-piperidyl]benzamide], 84.3%.
Same read-out and setting: under `Cc1ccc(NC(=O)NC(C)(C)C)cc1C(=O)N1CCC(c2ccc(C#N)cc2)CC1` [Example 376, 3-tert-butyl-1-[3-[4-(4-cyanophenyl)piperidine-1-carbonyl]-4-methylphenyl]urea] stands 68.4%.
The same measure, in the same setting: under `Cc1ccc(C(=O)N2CCC(c3ccc(C#N)cc3)CC2)cc1NC(=O)NC1Cc2ccncc2NC1=O` (centres unmarked) [Example 99, 1-[5-[4-(4-cyanophenyl)piperidine-1-carbonyl]-2-methyl-phenyl]-3-(2-oxo-3,4-dihydro-1H-1,7-naphthyridin-3-yl)urea] stands 90.2%; under `CC(=O)N(C)CCNC(=O)Nc1cc(C(=O)N2CCC(c3ccc(F)cc3)CC2)ccc1C` [Example 352, N-[2-[[5-[4-(4-fluorophenyl)piperidine-1-carbonyl]-2-methyl-phenyl]carbamoylamino]ethyl]-N-methyl-acetamide], 75.6%; under `Cc1cc(CNC(=O)Nc2cc(C(=O)N3CCC(c4ccc(C#N)cc4)CC3)ccc2C)on1` [Example 245, 1-[5-[4-(4-cyanophenyl)piperidine-1-carbonyl]-2-methyl-phenyl]-3-[(3-methyl-1,2-oxazol-5-yl)methyl]urea], 94.3%.
In the case of `Cc1ccc(C(=O)N2CCC(c3ccc(C#N)cc3)CC2)cc1NC(=O)NCCN(C)C` [Example 145, 1-[5-[4-(4-cyanophenyl)piperidine-1-carbonyl]-2-methyl-phenyl]-3-(2-dimethylaminoethyl)urea], the inhibition at 100 µM stood at 79.3%.
The same measure, in the same setting: under `Cc1ccc(C(=O)N2CCC(c3ccc(C#N)cc3)CC2)cc1NC(=O)NCC(C)(C)C` [Example 71, 1-[5-[4-(4-cyanophenyl)piperidine-1-carbonyl]-2-methyl-phenyl]-3-(2,2-dimethylpropyl)urea] stands 94.2%; under `Cc1ccc(C(=O)N2CCC(c3ccc(C#N)cc3)CC2)cc1NC(=O)N1CCOCC1` [Example 2, N-[5-[4-(4-cyanophenyl)piperidine-1-carbonyl]-2-methyl-phenyl]morpholine-4-carboxamide], 79.7%; under `COc1ncccc1-c1cc(CNC(=O)Nc2cc(C(=O)N3CCC(c4ccc(C#N)cc4)CC3)ccc2C)on1` [Example 251, 1-[5-[4-(4-cyanophenyl)piperidine-1-carbonyl]-2-methyl-phenyl]-3-[[3-(2-methoxypyridin-3-yl)-1,2-oxazol-5-yl]methyl]urea], 88.4%.
The same measure, in the same setting: under `Cc1ccc(C(=O)N2CCC(c3ccc(C#N)cc3)CC2)cc1NC(=O)NCc1ncccn1` [Example 291, 1-[5-[4-(4-cyanophenyl)piperidine-1-carbonyl]-2-methyl-phenyl]-3-(pyrimidin-2-ylmethyl)urea] stands 89.6%.
Consider `COC(=O)C(C)(C)NC(=O)Nc1cc(C(=O)N2CCC(c3ccc(C#N)cc3)CC2)ccc1C` [Methyl 2-[[5-[4-(4-cyanophenyl)piperidine-1-carbonyl]-2-methylphenyl]carbamoylamino]-2-methylpropanoate], for which the “IC50, inhibition of human Fatty Acid Synthase” value is “do not have IC50s in the range of about 0.001 μM to about 30 μM”.
`Cc1ccc(C(=O)N2CCC(c3ccc(C#N)cc3)CC2)cc1NC(=O)NCCNC(=O)c1cccs1` [Example 117, N-[2-[[5-[4-(4-cyanophenyl)piperidine-1-carbonyl]-2-methyl-phenyl]carbamoylamino]ethyl]thiophene-2-carboxamide]: the inhibition at 100 µM is 84.5%.
Same read-out and setting: for `COCCN1CCC(NC(=O)Nc2cc(C(=O)N3CCC(c4ccc(C#N)cc4)CC3)ccc2C)CC1` [Example 147, 1-[5-[4-(4-cyanophenyl)piperidine-1-carbonyl]-2-methyl-phenyl]-3-[1-(2-methoxyethyl)-4-piperidyl]urea] the value was 79.5%; for `Cc1ccc(NC(=O)N[C@@H](C)c2ccccc2)cc1C(=O)N1CCC(c2ccc(C#N)cc2)CC1` [Example 38, 3-[3-[4-(4-cyanophenyl)piperidine-1-carbonyl]-4-methyl-phenyl]-1-[(1S)-1-phenylethyl]urea], 76.6%.
